Data on 55 compounds can be found in patent publication US20250171452A1 (Viscient Bio, Inc., priority 2022, published 2025).

Counter-ions that a name gives are not always drawn.

As usually defined, the IC50 is the concentration that gives 50% inhibition. A high value points to a need for much substance.

In the assay the target is IDO2 (Homo sapiens (Human), UniProt Q6ZQW0). Nature of the assay: Cellular IDO2 assay, doxycycline and 5-methoxy-L-tryptophan medium, colorimetric. The assay is classed as cell-based. The note with it: cellular level, 72 h incubation, signal at 480 nm.
IDO2, sequence (Q6ZQW0 whole entry, species assumed): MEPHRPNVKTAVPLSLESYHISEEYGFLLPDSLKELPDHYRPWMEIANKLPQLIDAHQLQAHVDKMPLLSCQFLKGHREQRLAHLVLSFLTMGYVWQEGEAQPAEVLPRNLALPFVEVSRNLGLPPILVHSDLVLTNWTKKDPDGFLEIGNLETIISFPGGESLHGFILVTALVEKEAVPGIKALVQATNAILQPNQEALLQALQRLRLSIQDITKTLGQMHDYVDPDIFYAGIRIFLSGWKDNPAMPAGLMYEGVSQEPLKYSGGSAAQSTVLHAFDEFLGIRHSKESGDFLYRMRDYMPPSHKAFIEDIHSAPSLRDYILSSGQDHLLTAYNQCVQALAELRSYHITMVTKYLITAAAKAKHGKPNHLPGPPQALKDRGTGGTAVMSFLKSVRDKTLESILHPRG
Experimental: IDO2 inhibition at the cellular level was evaluated in vitro using the following procedure.
Using cell culture medium, the volume of the suspension was adjusted to achieve a cell concentration of 20,000 cells/well (90 uL/well).
5-Methoxy-L-tryptophan powder was dissolved in the culture medium to a concentration of 10 mM, then filtered and sterilized with a 0.22 um filter. Doxycycline powder was dissolved in ddH2O to a concentration of 100 ug/ml, then filtered and sterilized with a 0.22 um filter. 5-aminolevulinic acid powder was dissolved in ddH2O to a concentration of 400 mM, then filtered and sterilized with a 0.22 um filter. A 2× Assay medium was then by diluting the doxycycline (from 100 ug/ml to 2 ug/ml) and 5-Methoxy-L-tryptophan (from 10 mM to 5 mM) in culture medium. The 5-aminolevulinic acid solution was also added to the solution (diluting the concentration from 400 mM to 2 mM) to get a 2× working solution.
After incubation, plates and reagents were allows to equilibrate to room temperature. […] Trichloroacetic acid powder was dissolved in ddH2O to prepare 6.1N trichloroacetic acid. […] The plates were incubated at 55° C. for 40 minutes, and then centrifuged for 10 min at 2500 rpm. […] Measurement of the signal was performed using Envision at 480 nm. Throughout the foregoing process, care was taken to prevent exposure to light.
Turning to `CS(=O)(=O)c1ccc2c(c1)/C(=N\O)c1nc3cc(F)ccc3c(=O)n1-2` [Compound 67], the 50% inhibitory concentration (IC50) was in the range of 50 to 500 nM.

For the compound `NS(=O)(=O)c1ccc2c(c1)C(=O)c1nc3c(Cl)cccc3c(=O)n1-2` [Compound 116], the IC50 was in the range of 50 to 500 nM.

`N#C/N=C(\N)NCc1ccc2nc3n(c(=O)c2c1)-c1ccc(F)cc1C3=O` [Compound 140, 2-cyano-1-((8-fluoro-6,12-dioxo-6,12-dihydroindolo[2,1-b]quinazolin-2-yl)methyl)guanidine]: the concentration for half-maximal inhibition (IC50) is under 50 nM.

Consider `CN(C)Cc1ccc2nc3n(c(=O)c2c1Cl)-c1ccc(C#N)cc1C3=O` [Compound 104], for which the half-inhibitory concentration (IC50) is under 50 nM.

Consider `O=C1c2cc(F)ccc2-n2c1nc1cc(Nc3ccc(F)cc3)ccc1c2=O` [Compound 83], for which the half-maximal inhibitory concentration (IC50) was under 50 nM.

Regarding `NCCNC(=O)c1ccc2c(c1)/C(=N\O)c1nc3cc(Cl)ccc3c(=O)n1-2` [Compound 68], the IC50 was in the range of 50 to 500 nM.

Consider `O=C(NCc1ccc2c(=O)n3c(nc2c1)C(=O)c1cc(F)ccc1-3)OCc1ccccc1` [Compound 96, benzyl ((8-fluoro-6,12-dioxo-6,12-dihydroindolo[2,1-b]quinazolin-3-yl)methyl)carbamate], for which the 50% inhibitory concentration (IC50) was under 50 nM.

In the case of `CS(=O)(=O)c1ccc2c(c1)Cc1nc3cc(F)ccc3c(=O)n1-2` [Compound 85], the IC50 was 50 to 500 nM.

As for `CON=C1c2cc(F)ccc2-n2c1nc1c(Nc3ccc(F)cc3)cccc1c2=O` (stereo in doubt) [Compound 122, (Z)-8-Fluoro-4-((4-fluorophenyl)amino)-6-(methoxyimino)indolo[2,1-b]quinazolin-12(6H)-one], the IC50 is over 500 nM.

On to `CNS(=O)(=O)c1ccc2c(c1)C(=O)c1nc3cc(F)ccc3c(=O)n1-2` [Compound 82], for which the half-inhibitory concentration (IC50) was under 50 nM.

Compound `COc1cc2c(=O)n3c(nc2cn1)C(=O)c1cc([N+](=O)[O-])ccc1-3` [Compound 58, 3-Methoxy-9-nitropyrido[3′,4′:4,5]pyrimido[1,2-a]indole-5,11-dione] had an IC50 of 50 to 500 nM.

Compound `N#Cc1ccc2c(c1)C(=O)c1nc3ccc(CN4CCOCC4)cc3c(=O)n1-2` [Compound 136, 2-(morpholinomethyl)-6,12-dioxo-6,12-dihydroindolo[2,1-b]quinazoline-8-carbonitrile] had a half-maximal inhibitory concentration (IC50) of under 50 nM.

Compound `O=C1c2cc(F)ccc2-n2c1nc1c(Nc3ccc(F)cc3)cccc1c2=O` [Compound 125] came in with an IC50 of 50 to 500 nM.

Consider `N=C(N)NCc1ccc2nc3n(c(=O)c2c1)-c1ccc(F)cc1C3=O` [Compound 147, 1-((8-fluoro-6,12-dioxo-6,12-dihydroindolo[2,1-b]quinazolin-2-yl)methyl)guanidine], for which the IC50 was in the range of 50 to 500 nM.

With `O=C1c2cc(F)ccc2-n2c1nc1ccc(CBr)cc1c2=O` [Compound 133, 2-(bromomethyl)-8-fluoroindolo[2,1-b]quinazoline-6,12-dione], the IC50 is under 50 nM.

`CC(=O)NCc1ccc2c(=O)n3c(nc2c1)C(=O)c1cc(F)ccc1-3` [Compound 100, N-((8-fluoro-6,12-dioxo-6,12-dihydroindolo[2,1-b]quinazolin-3-yl)methyl)acetamide] returned an IC50 of under 50 nM.

With `NCc1ccc2nc3n(c(=O)c2c1)-c1ccc(F)cc1C3=O` [Compound 144, 2-(aminomethyl)-8-fluoroindolo[2,1-b]quinazoline-6,12-dione hydrochloride Salt], the 50% inhibitory concentration (IC50) is under 50 nM.

`O=C(O)c1ccc2nc3n(c(=O)c2c1)-c1ccc(F)cc1C3=O` [Compound 153, 8-fluoro-6,12-dioxo-6,12-dihydroindolo[2,1-b]quinazoline-2-carboxylic Acid] showed an IC50 of over 500 nM.

In the case of `N#Cc1ccc2c(c1)Cc1nc3cc(F)ccc3c(=O)n1-2` [Compound 72], the half-inhibitory concentration (IC50) is under 50 nM.

`CN(C)Cc1ccc2nc3n(c(=O)c2c1)-c1ccc(SCc2ccccc2)cc1C3=O` [Compound 130] came in with an IC50 of over 500 nM.

With `NCc1ccc2c(=O)n3c(nc2c1)C(=O)c1cc(F)ccc1-3` [Compound 90, 3-(aminomethyl)-8-fluoroindolo[2,1-b]quinazoline-6,12-dione Hydrochloride Salt], the IC50 lay within 50 to 500 nM.

In turn, `CC(C)(C)OC(=O)NCCNC(=O)c1ccc2c(c1)C(=O)c1nc3cc(Cl)ccc3c(=O)n1-2` [Compound 77] had an IC50 of 50 to 500 nM.

As to `Cc1ccc2nc3n(c(=O)c2c1Cl)-c1ccc(Br)cc1C3=O` [Compound 105], the IC50 is under 50 nM.

The compound `CO/N=C1/c2cc(F)ccc2-n2c1nc1ccc(-n3ccnc3)cc1c2=O` [Compound 132] displayed an IC50 of under 50 nM.

`O=c1c2ccccc2nc2n1-c1ccc([N+](=O)[O-])cc1C2` [Compound 62, 8-Nitroindolo[2,1-b]quinazolin-12(6H)-one] showed an IC50 of 50 to 500 nM.

As for `CS(=O)(=O)c1ccc2c(c1)C(=O)c1nc3cc(F)cc(F)c3c(=O)n1-2` [Compound 106], the IC50 lay in the range of 50 to 500 nM.

As to `N#Cc1ccc2c(c1)C(=O)c1nc3c(Nc4ccc(F)cc4)cccc3c(=O)n1-2` [Compound 119, 4-((4-Fluorophenyl)amino)-6,12-dioxo-6,12-dihydroindolo[2,1-b]quinazoline-8-carbonitrile], the IC50 is under 50 nM.

Take `O=C1c2cc(SCc3ccccc3)ccc2-n2c1nc1cc(Cl)ccc1c2=O` [Compound 78]: the IC50 is 50 to 500 nM.

On to `O=C1c2cc(F)ccc2-n2c1nc1c(OCc3ccc(F)cc3)cccc1c2=O` [Compound 124], for which the IC50 fell in the range of 50 to 500 nM.

`CS(=O)(=O)Nc1ccc2c(c1)C(=O)c1nc3cc(Cl)cc(Cl)c3c(=O)n1-2` [Compound 86] registered an IC50 of 50 to 500 nM.

The compound `Cc1ccc2nc3n(c(=O)c2c1)-c1ccc([N+](=O)[O-])cc1C3=O` [Compound 52, 2-Methyl-8-nitroindolo[2,1-b]quinazoline-6,12-dione] showed an IC50 of under 50 nM.

The compound `CO/N=C1/c2cc(F)ccc2-n2c1nc1ccc(-c3c[nH]cn3)cc1c2=O` [Compound 146] showed a 50% inhibitory concentration (IC50) of under 50 nM.

In turn, `NS(=O)(=O)c1ccc2c(c1)C(=O)c1nc3cc(F)cc(F)c3c(=O)n1-2` [Compound 109] came in with an IC50 of 50 to 500 nM.

`CO/N=C1\c2cc(F)ccc2-n2c1nc1cc(CN3CCN(C)CC3)ccc1c2=O` [Compound 74] gave an IC50 of over 500 nM.

Compound `O=C1c2cc([N+](=O)[O-])ccc2-n2c1nc1ccc(F)c(Cl)c1c2=O` [Compound 110] returned a 50% inhibitory concentration (IC50) of under 50 nM.

Regarding `CC1(CCC(=O)Nc2ccc3nc4n(c(=O)c3c2)-c2ccc(F)cc2C4=O)N=N1` [Compound 129], the IC50 was under 50 nM.

With `CON=C1c2cc(F)ccc2-n2c1nc1cc(CNS(C)(=O)=O)ccc1c2=O` (stereo in doubt) [Compound 91, (Z)—N-((8-fluoro-6-(methoxyimino)-12-oxo-6,12-dihydroindolo[2,1-b]quinazolin-3-yl)methyl)methanesulfonamide], the 50% inhibitory concentration (IC50) was under 50 nM.

For “3-bromo-8-nitroindolo[2,1-b]quinazoline-6,12-dione [Compound 65]”, the IC50 is 50 to 500 nM.

Turning to `CO/N=C1/c2cc(F)ccc2-n2c1nc1ccc(CNc3ccccn3)cc1c2=O` [Compound 134, (Z)-8-fluoro-6-(methoxyimino)-2-((pyridin-2-ylamino)methyl)indolo[2,1-b]quinazolin-12(6H)-one], the IC50 fell in the range of 50 to 500 nM.

As for `CN(C)Cc1ccc2nc3n(c(=O)c2c1Cl)-c1ccc(Br)cc1C3=O` [Compound 107], the half-maximal inhibitory concentration (IC50) is under 50 nM.

`N#Cc1ccc2c(c1)/C(=N\O)c1nc3cc(Cl)ccc3c(=O)n1-2` [Compound 84] yielded an IC50 of under 50 nM.

Take `CON=C1c2cc(C#N)ccc2-n2c1nc1c(Nc3ccc(F)cc3)cccc1c2=O` (stereo in doubt) [Compound 118, (Z)-4-((4-Fluorophenyl)amino)-6-(methoxyimino)-12-oxo-6,12-dihydroindolo[2,1-b]quinazoline-8-carbonitrile]: the IC50 was under 50 nM.

As to `COc1cc(OC)nc(Nc2ccc3nc4n(c(=O)c3c2)-c2ccc(F)cc2C4=O)n1` [Compound 135, 2-((4,6-dimethoxypyrimidin-2-yl)amino)-8-fluoroindolo[2,1-b]quinazoline-6,12-dione], the IC50 was under 50 nM.

Compound `CS(=O)(=O)NCc1ccc2c(=O)n3c(nc2c1)C(=O)c1cc(F)ccc1-3` [Compound 95, N-((8-fluoro-6,12-dioxo-6,12-dihydroindolo[2,1-b]quinazolin-3-yl)methyl)methanesulfonamide] came in with an IC50 of under 50 nM.

`CC1(CCC(=O)Nc2ccc3c(c2)C(=O)c2nc4cc(Cl)ccc4c(=O)n2-3)N=N1` [Compound 73]: the IC50 was in the range of 50 to 500 nM.

As for `CN(C)Cc1ccc2nc3n(c(=O)c2c1)-c1ccc(Br)cc1C3=O` [Compound 128], the 50% inhibitory concentration (IC50) is under 50 nM.

Regarding `O=C1c2cc([N+](=O)[O-])ccc2-n2c1nc1cnccc1c2=O` [Compound 57, 9-Nitropyrido[3′,4′:4,5]pyrimido[1,2-a]indole-5,11-dione], the IC50 was under 50 nM.

Regarding `CC(=O)NCc1ccc2nc3n(c(=O)c2c1)-c1ccc(F)cc1C3=O` [Compound 142, N-((8-fluoro-6,12-dioxo-6,12-dihydroindolo[2,1-b]quinazolin-2-yl)methyl)acetamide], the IC50 was under 50 nM.

`O=C1c2cc(F)ccc2-n2c1nc1cccc(Br)c1c2=O` [Compound 103, 1-bromo-8-fluoroindolo[2,1-b]quinazoline-6,12-dione] gave a half-inhibitory concentration (IC50) of under 50 nM.

The compound `NS(=O)(=O)NCc1ccc2nc3n(c(=O)c2c1)-c1ccc(F)cc1C3=O` [Compound 143] had an IC50 of under 50 nM.

`CC1(O)c2cc(F)ccc2-n2c1nc1ccc(C#N)cc1c2=O` (stereo not shown) [Compound 152, 8-fluoro-6-hydroxy-6-methyl-12-oxo-6,12-dihydroindolo[2,1-b]quinazoline-2-carbonitrile] had a concentration for half-maximal inhibition (IC50) of over 500 nM.

Take `O=c1c2ccc(Cl)cc2nc2n1-c1ccc(Br)cc1C2` [Compound 76]: the half-maximal inhibitory concentration (IC50) is under 50 nM.

Regarding `[N-]=[N+]=Nc1ccc2c(c1)C(=O)c1nc3cc(Cl)ccc3c(=O)n1-2` [Compound 66], the half-inhibitory concentration (IC50) was under 50 nM.

As to `N=C(N)c1ccc2nc3n(c(=O)c2c1)-c1ccc(F)cc1C3=O` [Compound 148, 8-fluoro-6,12-dioxo-6,12-dihydroindolo[2,1-b]quinazoline-2-carboximidamide], the IC50 is under 50 nM.

In the case of `N#Cc1ccc2c(c1)C(=O)c1nc3c(Oc4ccc(F)cc4)cccc3c(=O)n1-2` [Compound 71], the half-inhibitory concentration (IC50) was under 50 nM.
